Read-outs that look alike come from different tables or passages of the source. Numbered stars: 1 amine (or outer) side, 2 acyl side, 3 side chain; on linkers, the order of the positions; unused ones are H or OH. Square brackets hold non-standard residues; d marks the D form. Side chains are listed from the residue outwards. Peptide text beside a SMILES is read from it. * marks the point of attachment. γGlu = O=C(O)[C@H](CCC(=O)[*:2])N[*:1]; Palmitoyl = CCCCCCCCCCCCCCCC(=O)*; αMeF = C[C@](N)(Cc1ccccc1)C(=O)O; αMeK = C[C@](N)(CCCCN)C(=O)O; Lauroyl = CCCCCCCCCCCC(=O)*; αMeS = C[C@](N)(CO)C(=O)O; AEEA = NCCOCCOCC(=O)O; Aib = CC(C)(N)C(=O)O
How the values were obtained:
Format in all cases: cell-based
[1] = molecular target: T1, human glucagon receptor (GCGR) (Homo sapiens, UniProt P47871); test: cAMP assay, human GCGR cells; conditions: cAMP assay
T1 construct: expressed in transfected cells
T1 sequence (P47871 26-477): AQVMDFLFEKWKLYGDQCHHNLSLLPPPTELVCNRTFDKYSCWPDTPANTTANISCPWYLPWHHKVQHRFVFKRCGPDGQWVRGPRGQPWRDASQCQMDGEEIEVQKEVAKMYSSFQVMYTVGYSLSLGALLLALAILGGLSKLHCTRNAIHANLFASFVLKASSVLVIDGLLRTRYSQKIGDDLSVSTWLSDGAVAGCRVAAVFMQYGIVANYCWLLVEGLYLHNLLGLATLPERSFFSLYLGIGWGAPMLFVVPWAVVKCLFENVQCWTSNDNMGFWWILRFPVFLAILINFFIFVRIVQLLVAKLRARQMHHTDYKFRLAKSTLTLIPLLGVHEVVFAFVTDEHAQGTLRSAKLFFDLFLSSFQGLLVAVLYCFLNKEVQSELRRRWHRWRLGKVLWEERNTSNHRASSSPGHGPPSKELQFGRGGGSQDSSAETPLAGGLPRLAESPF
Description: (§1) Sample dilutions are made in duplicate.
(§2) A frozen cryo-vial of cells expressing the receptor of interest is thawed rapidly in a water-bath, transferred to pre-warmed assay buffer and spun at 240×g for 5 minutes. Cells are re-suspended in assay buffer at a batch-dependent optimized concentration (e.g. hGCGR cells at 2×10^5 cells/ml, hGLP-1R and hGIPR cells at 1×10^5 cells/ml).
(§3) To this, 5 μL cell suspension is added and the plates incubated at room temperature for 30 minutes.
(§4) cAMP levels are measured using a commercially available cAMP dynamic 2 HTRF kit (Cisbio, Cat #62AM4PEJ), following the two step protocol as per manufacturer's recommendations. In brief; anti-cAMP cryptate (donor fluorophore) and cAMP-d2 (acceptor fluorophore) are made up separately by diluting each 1/20 in conjugate & lysis buffer provided in the kit. 5 μL anti-cAMP cryptate is added to wells of the assay plate, and 5 μL cAMP-d2 is added to wells except non-specific binding (NSB) wells, to which conjugate and lysis buffer are added. […] EC50 values of the synthetic peptides determined in cAMP assays are then determined.
(§5) Data is transformed to % Delta F as described in the manufacturer's guidelines and analyzed by 4-parameter logistic fit to determine EC50 values. […] To compare the balance of activities at the GLP-1R and GCGR between different peptides and across different conditions, these can be correlated, where the EC50's are related to those of comparator peptides.

[2] = molecular target: T2, human glucose-dependent insulinotropic peptide receptor (GIPR) (Homo sapiens, UniProt P48546); test: cAMP assay, human GIPR cells; conditions: cAMP assay
T2 construct: expressed in transfected cells
T2 sequence (P48546 22-466): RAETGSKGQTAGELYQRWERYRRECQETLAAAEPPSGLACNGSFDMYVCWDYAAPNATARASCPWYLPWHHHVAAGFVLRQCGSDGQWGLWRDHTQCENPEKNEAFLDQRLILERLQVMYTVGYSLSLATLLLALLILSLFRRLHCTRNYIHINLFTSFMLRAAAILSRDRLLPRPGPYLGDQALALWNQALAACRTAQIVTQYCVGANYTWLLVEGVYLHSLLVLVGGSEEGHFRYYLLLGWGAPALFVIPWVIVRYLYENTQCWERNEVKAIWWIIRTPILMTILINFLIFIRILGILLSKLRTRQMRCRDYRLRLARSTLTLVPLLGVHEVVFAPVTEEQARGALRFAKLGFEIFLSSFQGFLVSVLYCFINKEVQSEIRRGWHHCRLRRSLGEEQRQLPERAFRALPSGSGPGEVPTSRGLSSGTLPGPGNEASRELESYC
Description: as §1, §2, §3, §4, §5

[3] = molecular target: T3, human GLP-1 receptor (GLP-1R) (Homo sapiens, UniProt P43220); test: cAMP assay, human GLP-1R cells; conditions: bis-lipidated peptides
T3 construct: expressed in transfected cells
T3 sequence (P43220 24-463): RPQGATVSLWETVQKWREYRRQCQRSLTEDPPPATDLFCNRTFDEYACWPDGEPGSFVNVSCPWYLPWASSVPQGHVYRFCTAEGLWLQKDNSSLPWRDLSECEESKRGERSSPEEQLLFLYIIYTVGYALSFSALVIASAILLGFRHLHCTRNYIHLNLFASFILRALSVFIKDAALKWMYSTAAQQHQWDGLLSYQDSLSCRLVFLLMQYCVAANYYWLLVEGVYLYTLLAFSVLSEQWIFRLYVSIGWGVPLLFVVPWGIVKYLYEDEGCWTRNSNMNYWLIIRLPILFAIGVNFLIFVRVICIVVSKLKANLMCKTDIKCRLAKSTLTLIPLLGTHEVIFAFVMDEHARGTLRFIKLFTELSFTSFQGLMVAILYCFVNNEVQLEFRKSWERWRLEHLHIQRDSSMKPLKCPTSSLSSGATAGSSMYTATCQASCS
Description: as §1, §2, §3, §4, §5

[4] = first determination (n1), read-out: Primary assay EC50 Gluc-R (n1)
[5] = second determination (n2), read-out: Primary assay EC50 Gluc-R (n2)
[6] = first determination (n1), read-out: Primary assay EC50 GIP-R (n1)
[7] = second determination (n2), read-out: Primary assay EC50 GIP-R (n2)
[8] = mean of n1 and n2, read-out: Primary assay EC50 Mean pM GLP-1R
[9] = replicate n1, read-out: Primary assay EC50 GLP-1R n1
[10] = replicate n2, read-out: Primary assay EC50 GLP-1R n2

Compound	EC50 [1, 4] [nM]	EC50 [1, 5] [nM]	EC50 [2, 6] [nM]	EC50 [2, 7] [nM]	EC50 [3, 8] [pM]	EC50 [3, 9] [pM]	EC50 [3, 10] [pM]
CC[C@H](C)[C@H](NC(=O)[C@](C)(Cc1ccccc1)NC(=O)[C@H](CCC(=O)O)NC(=O)[C@H](CCCCNC(=O)COCCOCCNC(=O)COCCOCCNC(=O)CCCCCCCCCCCCCCCCC(=O)O)NC(=O)[C@H](C)NC(=O)[C@H](C)NC(=O)[C@H](CCC(=O)O)NC(=O)CNC(=O)[C@H](CCC(=O)O)NC(=O)[C@H](CC(C)C)NC(=O)[C@](C)(Cc1ccccc1)NC(=O)[C@H](CO)NC(=O)[C@](C)(CO)NC(=O)[C@@H](NC(=O)[C@H](CC(=O)O)NC(=O)[C@H](CO)NC(=O)[C@@H](NC(=O)[C@](C)(Cc1ccccc1)NC(=O)[C@H](CO)NC(=O)CNC(=O)[C@H](CCC(=O)O)NC(=O)C(C)(C)NC(=O)[C@@H](N)Cc1c[nH]cn1)[C@@H](C)O)C(C)C)C(=O)N[C@@H](C)C(=O)N[C@@](C)(Cc1ccccc1)C(=O)N[C@H](C(=O)N[C@H](C(=O)N[C@@](C)(CCCCN)C(=O)NCC(=O)NCC(N)=O)C(C)C)C(C)C [compound 162]	≥ 26	≥ 26	≥ 26	≥ 26	–	–	–
CC[C@H](C)[C@H](NC(=O)[C@H](Cc1ccccc1)NC(=O)[C@H](CCC(=O)O)NC(=O)[C@H](CCCCN)NC(=O)[C@H](C)NC(=O)[C@H](C)NC(=O)[C@H](CCC(N)=O)NC(=O)CNC(=O)[C@H](CCC(=O)O)NC(=O)[C@H](CC(C)C)NC(=O)[C@H](Cc1ccc(O)cc1)NC(=O)[C@H](CO)NC(=O)[C@](C)(CO)NC(=O)[C@@H](NC(=O)[C@H](CC(=O)O)NC(=O)[C@](C)(CO)NC(=O)[C@@H](NC(=O)[C@H](Cc1ccccc1)NC(=O)[C@@H](NC(=O)CNC(=O)[C@H](CCC(=O)O)NC(=O)C(C)(C)NC(=O)[C@@H](N)Cc1c[nH]cn1)[C@@H](C)O)[C@@H](C)O)C(C)C)C(=O)N[C@@H](C)C(=O)N[C@@H](Cc1c[nH]c2ccccc12)C(=O)N[C@@H](CC(C)C)C(=O)N[C@H](C(=O)N[C@@H](CCCCN)C(=O)NCC(=O)N[C@@H](CCCNC(=N)N)C(N)=O)C(C)C [compound 23]	≥ 540	≥ 540	≥ 540	≥ 540	–	–	–
CC[C@H](C)[C@H](NC(=O)[C@](C)(Cc1ccccc1)NC(=O)[C@H](CCC(=O)O)NC(=O)[C@](C)(CCCCN)NC(=O)[C@H](C)NC(=O)[C@H](C)NC(=O)[C@H](CCC(=O)O)NC(=O)CNC(=O)[C@H](CCC(=O)O)NC(=O)[C@H](CC(C)C)NC(=O)[C@](C)(Cc1ccccc1)NC(=O)[C@H](CO)NC(=O)[C@](C)(CO)NC(=O)[C@@H](NC(=O)[C@H](CC(=O)O)NC(=O)[C@@H](NC(=O)[C@@H](NC(=O)[C@](C)(Cc1ccccc1)NC(=O)[C@H](CO)NC(=O)CNC(=O)[C@H](CCC(=O)O)NC(=O)C(C)(C)NC(=O)[C@@H](N)Cc1c[nH]cn1)[C@@H](C)O)[C@@H](C)O)C(C)C)C(=O)N[C@@H](C)C(=O)N[C@@](C)(Cc1ccccc1)C(=O)N[C@H](C(=O)N[C@H](C(=O)N[C@@](C)(CCCCN)C(=O)NCC(=O)NCC(N)=O)C(C)C)C(C)C [compound 29] (H-H[Aib]EGS[αMeF]TTDV[αMeS]S[αMeF]LEGEAA[αMeK]E[αMeF]IA[αMeF]VV[αMeK]GG-NH2)	≥ 100	≥ 100	≥ 100	≥ 100	–	–	–
CCCCCCCCCCCCCCCC(=O)N[C@@H](CCC(=O)NCCCC[C@H](NC(=O)[C@](C)(Cc1ccccc1)NC(=O)[C@H](CCC(=O)O)NC(=O)[C@](C)(CCCCN)NC(=O)[C@H](C)NC(=O)[C@H](C)NC(=O)[C@H](CCC(=O)O)NC(=O)CNC(=O)[C@H](CCC(=O)O)NC(=O)[C@H](CC(C)C)NC(=O)[C@](C)(Cc1ccccc1)NC(=O)[C@H](CO)NC(=O)[C@](C)(CO)NC(=O)[C@@H](NC(=O)[C@H](CC(=O)O)NC(=O)[C@H](CO)NC(=O)[C@@H](NC(=O)[C@](C)(Cc1ccccc1)NC(=O)[C@H](CO)NC(=O)CNC(=O)[C@H](CCC(=O)O)NC(=O)C(C)(C)NC(=O)[C@@H](N)Cc1c[nH]cn1)[C@@H](C)O)C(C)C)C(=O)N[C@@H](C)C(=O)N[C@@](C)(Cc1ccccc1)C(=O)N[C@H](C(=O)N[C@H](C(=O)N[C@@](C)(CCCCN)C(=O)NCC(=O)NCC(N)=O)C(C)C)C(C)C)C(=O)O [compound 77] (H-H[Aib]EGS[αMeF]TSDV[αMeS]S[αMeF]LEGEAA[αMeK]E[αMeF]K([γGlu-Palmitoyl])A[αMeF]VV[αMeK]GG-NH2)	≥ 28	≥ 28	≥ 28	≥ 28	–	–	–
CCCCCCCCCCCC(=O)N[C@@H](CCC(=O)NCCOCCOCC(=O)NCCOCCOCC(=O)NCCCC[C@H](NC(=O)[C@H](CC(=O)O)NC(=O)[C@H](CO)NC(=O)[C@@H](NC(=O)[C@](C)(Cc1ccccc1)NC(=O)[C@H](CO)NC(=O)CNC(=O)[C@H](CCC(=O)O)NC(=O)C(C)(C)NC(=O)[C@@H](N)Cc1c[nH]cn1)[C@@H](C)O)C(=O)N[C@@H](CO)C(=O)N[C@@H](CO)C(=O)N[C@@H](Cc1ccc(O)cc1)C(=O)N[C@@H](CC(C)C)C(=O)N[C@@H](CCC(=O)O)C(=O)NCC(=O)N[C@@H](CCC(=O)O)C(=O)N[C@@H](C)C(=O)N[C@@H](C)C(=O)N[C@@](C)(CCCCN)C(=O)N[C@@H](CCC(=O)O)C(=O)N[C@@H](Cc1ccccc1)C(=O)N[C@H](C(=O)N[C@@H](C)C(=O)N[C@@H](Cc1c[nH]c2ccccc12)C(=O)N[C@@H](CCCCNC(=O)COCCOCCNC(=O)COCCOCCNC(=O)CC[C@H](NC(=O)CCCCCCCCCCC)C(=O)O)C(=O)N[C@H](C(=O)N[C@@H](CCC(=O)O)C(=O)NCC(=O)NCC(N)=O)C(C)C)[C@@H](C)CC)C(=O)O [compound 258] (H-H[Aib]EGS[αMeF]TSDK([AEEA-AEEA-γGlu-Lauroyl])SSYLEGEAA[αMeK]EFIAWK([AEEA-AEEA-γGlu-Lauroyl])VEGG-NH2; N-terminus assumed)	–	–	–	–	92.3	59.6	125
CCCCCCCCCCCC(=O)N[C@@H](CCC(=O)NCCOCCOCC(=O)NCCOCCOCC(=O)NCCCC[C@H](NC(=O)[C@H](CC(=O)O)NC(=O)[C@H](CO)NC(=O)[C@@H](NC(=O)[C@](C)(Cc1ccccc1)NC(=O)[C@H](CO)NC(=O)CNC(=O)[C@H](CCC(=O)O)NC(=O)C(C)(C)NC(=O)[C@@H](N)Cc1c[nH]cn1)[C@@H](C)O)C(=O)N[C@@H](CO)C(=O)N[C@@H](CO)C(=O)N[C@@H](Cc1ccc(O)cc1)C(=O)N[C@@H](CC(C)C)C(=O)N[C@@H](CCC(=O)O)C(=O)NCC(=O)N[C@@H](CCC(=O)O)C(=O)N[C@@H](C)C(=O)N[C@@H](C)C(=O)N[C@@](C)(CCCCN)C(=O)N[C@@H](CCC(=O)O)C(=O)N[C@@H](Cc1ccccc1)C(=O)N[C@H](C(=O)N[C@@H](CCCCNC(=O)COCCOCCNC(=O)COCCOCCNC(=O)CC[C@H](NC(=O)CCCCCCCCCCC)C(=O)O)C(=O)N[C@@H](Cc1c[nH]c2ccccc12)C(=O)N[C@H](C(=O)N[C@H](C(=O)N[C@@H](CCC(=O)O)C(=O)NCC(=O)NCC(N)=O)C(C)C)C(C)C)[C@@H](C)CC)C(=O)O [compound 256] (H-H[Aib]EGS[αMeF]TSDK([AEEA-AEEA-γGlu-Lauroyl])SSYLEGEAA[αMeK]EFIK([AEEA-AEEA-γGlu-Lauroyl])WVVEGG-NH2)	–	–	–	–	7.5	9.46	5.57

— patent publication US10414811B2, “Protease-resistant lipidated GLP-1 analogs” (MEDIMMUNE LIMITED, priority 2015, dated 2019)
